PMC11352409, “Subtype-Specific Ligand Binding and Activation Gating in Homomeric and Heteromeric P2X Receptors” (Biomolecules, 2024)

What was measured:
[1] = biological target: T1, human P2X3 receptors (Homo sapiens, UniProt P56373); assay: Whole-cell patch-clamp concentration-activation, HEK293 cells stably expressing hP2X3; format: cell-based; settings: for Hill: hP2X3, Hill coefficient of concentration-activation fit; for Effect (Fold in ATP Potency): hP2X3, relative to ATP; for Effect (Fold in ATP Efficacy): hP2X3, relative to current at 100 µM ATP; for EC50: hP2X3, whole-cell, -50 mV, divalent-cation-free bath with 10 mM EGTA, normalised to 100 µM ATP
T1 construct: expressed in transfected cells
T1 sequence (P56373 1-397): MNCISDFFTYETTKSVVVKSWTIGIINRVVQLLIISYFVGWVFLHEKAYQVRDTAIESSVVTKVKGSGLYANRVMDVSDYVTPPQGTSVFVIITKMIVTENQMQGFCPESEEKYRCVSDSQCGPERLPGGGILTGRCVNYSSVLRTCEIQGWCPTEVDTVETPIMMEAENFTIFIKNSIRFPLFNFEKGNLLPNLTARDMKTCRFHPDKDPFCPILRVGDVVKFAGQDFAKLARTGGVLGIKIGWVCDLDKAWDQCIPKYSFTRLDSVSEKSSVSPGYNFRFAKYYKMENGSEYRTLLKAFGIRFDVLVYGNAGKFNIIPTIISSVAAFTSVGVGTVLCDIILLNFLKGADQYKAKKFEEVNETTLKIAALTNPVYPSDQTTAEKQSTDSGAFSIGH
Procedure: (§1) Human P2X receptors were expressed from HEK293 cell lines containing an inducible promoter system (Flp-In-T-REx 293, Invitrogen, Waltham, MA, USA). The used cell lines were: hP2X2 B (RRID: AC line CVCL_D6U1), hP2X3 (RRID: AC line CVCL_D6U3), and hP2X2/3 (RRID: AC line CVCL_D6U2). The cells were cultured in MEM supplemented with non-essential amino acids (Gibco, Waltham, MA, USA), 10% FCS, and antibiotics, according to the manufacturer’s instructions. For stable cell lines, Flp-In-T-REx 293 cells were transfected using the calcium phosphate method with a mixture of plasmids (0.3 µg pcDNA5/FRT/TO P2X gene and 1.5 µg pOG44) and selected for hygromycin resistance. The cells were seeded on glass coverslips for electrophysiological measurements and used 24–48 h after tetracycline induction ([…]).
(§2) Membrane currents were recorded with a standard patch-clamp technique in the whole-cell configuration. The patch pipettes were pulled from borosilicate glass (ID 1.0 mm, OD 2.0 mm; VITROCOM, Mountain Lakes, NJ, USA) using a micropipette puller (P-97, Sutter Instrument, Novato, CA, USA). The pipettes were filled with intracellular solution containing (mM) 142 NaCl, 5 BAPTA, 5 EGTA, and 10 HEPES at pH 7.4. The pipette resistance was from 2.0 to 6.0 MΩ. The bath solution contained (mM) 142 NaCl, 10 EGTA, 10 HEPES, and 10 glucose at pH 7.4. To increase the speed of recovery from the hP2X3 receptors, we additionally used a bath solution containing (mM) 142 NaCl, 10 HEPES, 10 glucose, 2 CaCl2, and 1 MgCl2. The cells were lifted for recording from the chamber bottom by the patch pipette and positioned in front of the outlet of the application pipette.
(§3) Solutions switches were carried out with the application pipette that had three barrels (inner diameter ~600 µm, Warner Instruments) controlled by a step motor (SF-77B, Warner Instruments). The speed of the laminar solution flow out of the barrels was estimated to be 2–5 cm/s. One barrel contained a control solution and another was connected to a solution selector (Vici Valco Instruments), which allowed us to apply different test solutions by exchanging the solution during the interval (60 sec for P2X2 and P2X2/3 receptors, 180 s for P2X3 receptors) of applying the control solution. Cells expressing hP2X3 were washed with 3 Units/mL apyrase for 30 min to remove ATP. To ensure the comparability of the data points between each application, we rinsed hP2X3 with the following solution for 3 min after each ATP application (mM): 142 NaCl, 10 HEPES, 10 glucose, 2 CaCl2, and 1 MgCl2 at pH 7.4. After sufficient recovery, we switched to the bath solution for 10 s and then to the solution of interest. The speed of the switch around a whole cell was estimated to be below 10 ms by switching between different salt solutions.
(§4) The saturation of activation was determined with ATP at 100 µM. The currents were recorded with a HEKA EPC 10 amplifier in combination with the patchmaster software. The sampling rate was 10 kHz and the recordings were on-line filtered at 2.9 kHz using a four-pole Bessel filter. The currents were recorded at a constant holding potential of −50 mV and the series resistance was compensated with the patchmaster software up to 80%.
(§5) The concentration–activation relationships from whole-cell measurements in the HEK293 cells were obtained from the maximum currents during ATP application. These current amplitudes were normalised with respect to the current at saturating ATP (100 µM) and the resulting data points were fitted I/ImaxATP = Amp/(1 + (EC50/[X])^h) (1) with the Origin 2019® software using a non-linear curve fitting routine. I is the actual current amplitude and ImaxATP is the maximum current amplitude at saturating ATP. The amplitude Amp is the efficacy of the respective ligands. EC50 is the ligand concentration generating the half-maximum current and h is the respective Hill coefficient. [X] is the actual concentration of ATP to be tested. […]

[2] = biological target: T2, human P2X2/3 receptors (Homo sapiens, UniProt P56373+Q9UBL9); assay: Whole-cell patch-clamp concentration-activation, HEK293 cells stably expressing hP2X2/3; format: cell-based; settings: for Hill: hP2X2/3, Hill coefficient of concentration-activation fit; for Effect (Fold in ATP Efficacy): hP2X2/3, relative to current at 100 µM ATP; for EC50: hP2X2/3, whole-cell, -50 mV, divalent-cation-free bath with 10 mM EGTA, normalised to 100 µM ATP
T2 construct: expressed in transfected cells
T2 sequence (Q9UBL9 1-404 isoform Q9UBL9-2): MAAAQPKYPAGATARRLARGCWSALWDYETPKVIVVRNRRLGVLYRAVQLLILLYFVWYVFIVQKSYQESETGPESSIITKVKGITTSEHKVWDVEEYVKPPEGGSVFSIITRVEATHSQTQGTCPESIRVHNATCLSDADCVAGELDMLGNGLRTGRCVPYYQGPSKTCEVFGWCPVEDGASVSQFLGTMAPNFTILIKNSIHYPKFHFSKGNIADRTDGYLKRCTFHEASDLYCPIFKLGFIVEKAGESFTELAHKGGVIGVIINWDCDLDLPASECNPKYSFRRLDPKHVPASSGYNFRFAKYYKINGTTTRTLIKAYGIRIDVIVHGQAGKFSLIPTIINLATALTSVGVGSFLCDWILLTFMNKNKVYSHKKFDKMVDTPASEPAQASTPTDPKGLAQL
T2 sequence (P56373 1-397): T1 sequence (P56373 1-397)
Procedure: as §1, §2, §3, §4, §5

SMILES | Hill [1] | Effect (Fold in ATP Potency) [1] | Effect (Fold in ATP Efficacy) [1] | EC50 [1] | Hill [2] | Effect (Fold in ATP Efficacy) [2] | Agonist behaviour (current response) ([2]; hP2X2/3, result in words) | EC50 [2] | Effect (Fold in ATP Potency) ([2]; hP2X2/3, relative to ATP)
COCC[N+]1=C(C=CC=C2N(CCCCCC(=O)NCCCCCCSc3nc(N)c4ncn(C5OC(COP(=O)(O)OP(=O)(O)OP(=O)(O)O)C(O)C5O)c4n3)c3ccc(S(=O)(=O)O)cc3C2(C)C)C(C)(C)c2cc(S(=O)(=O)[O-])ccc21 (stereo not shown) [fATP, 2-[DY-547P1]-AHT-ATP] | 1.6 ± 0.1 | 0.9 fold | 0.8 fold | 1300 ± 100 nM | 0.9 ± 0.2 | 0.4 fold | partial agonist | 700 ± 300 nM | 
COCC[N+]1=C(C=CC=C2N(CCCCCC(=O)NCCCCCCSc3nc(N)c4ncn(C5OC(COP(=O)(O)CP(=O)(O)OP(=O)(O)O)C(O)C5O)c4n3)c3ccc(S(=O)(=O)O)cc3C2(C)C)C(C)(C)c2cc(S(=O)(=O)[O-])ccc21 (stereo not drawn) [α,βMe-fATP, 2-[DY-547P1]-AHT-α,βMe-ATP] | 3.5 ± 0.0 | 0.1 fold | 1.0 fold | 8100 nM | 4.4 ± 3.5 | 0.03 fold |  | 1500 ± 600 nM | 1.8 fold
